Tested on: Saccharomyces cerevisiae
Assay: Toxic effect of selected bio-oil model compounds on yeast growth (inhibition rate)
Type: cell-based
Set-up: inhibition rate: unit not given here
Settings: for inhibition of yeast growth, summary in words: summary of Table 4
From the text: The nature and the range of lethal concentrations of many of these toxic compounds was not well known. Thus, we carried out tests with model compounds to identify which of them were toxic to yeasts.
The toxic effects of selected bio-oil compounds (acetic acid, propanoic acid, cyclopentanone, 2-furaldehyde, furfuryl alcohol, phenol, eugenol, acetol, 2-(5H)-furanone, stilbene, vanillin, syringaldehyde, o-cresol) on Saccharomyces cerevisiae were studied.

[1] = compound at 25% of CFBO (concentration found in bio-oils; Mallee fast pyrolysis oil, 500° C.)
[2] = compound at 50% of CFBO (concentration found in bio-oils; Mallee fast pyrolysis oil, 500° C.)
[3] = compound at 75% of CFBO (concentration found in bio-oils; Mallee fast pyrolysis oil, 500° C.)
[4] = compound at 100% of CFBO (concentration found in bio-oils; Mallee fast pyrolysis oil, 500° C.)

**Q.** For `C=CCc1ccc(O)c(OC)c1` [Eugenol], which “inhibition of yeast growth, summary in words” value (“inhibition of yeast growth” below) is on record?
**A.** most lethal compounds inhibiting yeast growth

**Q.** `COc1cc(C=O)cc(OC)c1O` [Syringaldehyde] was tested. Which “inhibition of yeast growth” value did it give?
**A.** most lethal compounds inhibiting yeast growth

**Q.** With `CCC(=O)O` [Propanoic acid] as the compound, how does the “inhibition of yeast growth” value read?
**A.** most lethal compounds inhibiting yeast growth

**Q.** With `Oc1ccccc1O` [Pyrocatechol] as the compound, how does the “inhibition of yeast growth” value read?
**A.** most lethal compounds inhibiting yeast growth

**Q.** Which “inhibition of yeast growth” value does the source give for `CC(=O)O` [Acetic acid] here?
**A.** most lethal compounds inhibiting yeast growth

**Q.** With `O=Cc1ccco1` [2-furaldehyde] as the compound, how does the “inhibition of yeast growth” value read?
**A.** also inhibitors but their inhibition rate is much lower

**Q.** What does the source list for `Cc1ccccc1C` [O-xylol]?
**A.** inhibition rate [1]: 5.01; inhibition rate [2]: 5.23; inhibition rate [3]: 5.33; inhibition rate [4]: 5.44

**Q.** With `COc1cc(C=O)ccc1O` [Vanillin] as the compound, how does the “inhibition of yeast growth” value read?
**A.** most lethal compounds inhibiting yeast growth

**Q.** `O=C1C=CCO1` [2-(5H)-Furanone] was tested. Which “inhibition of yeast growth” value did it give?
**A.** also inhibitors but their inhibition rate is much lower

**Q.** What does the source list for `CC(=O)CO` [Acetol]?
**A.** inhibition rate [1]: 44.17; inhibition rate [2]: 77.80; inhibition rate [3]: 78.93; inhibition rate [4]: 80.07

**Q.** Which “inhibition of yeast growth” value does the source give for `Oc1ccccc1` [Phenol] here?
**A.** most lethal compounds inhibiting yeast growth

**Q.** With `Cc1ccccc1O` [O-cresol] as the compound, how does the inhibition rate [1] read?
**A.** 2.61

**Q.** And the inhibition rate [2]?
**A.** 14.16

**Q.** What about the inhibition rate [3] of the same compound?
**A.** 23.38

**Q.** What about the inhibition rate [4] of the same compound?
**A.** 31.22

**Q.** With `CCCCCCCCCCCCCCC` [Petadecane] as the compound, how does the “inhibition of yeast growth” value read?
**A.** also inhibitors but their inhibition rate is much lower

**Q.** With `OCc1ccco1` [Furfuryl alcohol] as the compound, how does the “inhibition of yeast growth” value read?
**A.** also inhibitors but their inhibition rate is much lower

**Q.** Which “inhibition of yeast growth” value does the source give for `CCCCCCCCCCCCCC` [Tetradecane] here?
**A.** also inhibitors but their inhibition rate is much lower
